According to paper PMC4900804, “Allosteric modulation in monomers and oligomers of a G protein-coupled receptor” (eLife, 2016):
Positions count from the first letter of the chain named. “And” between values parts separate entries of the source, which are not always exact repeats. Equal entries are not always repeated. Where two headings read alike, the source gives them in different places.

Legend:
[1] = target: mCh-M2(D103A)-FCM (human) (UniProt P08172)
[2] = target: T1, FlAsH-reacted mCh-M2-FCM in CHO cells (Homo sapiens, UniProt P08172, INS166FLNCCPGCCMEP); assay: FRET between FlAsH and mCherry in the sensor, ligand-dependent change in Eapp; type: cell-based; conditions: ligand 1 mM
T1 sequence (P08172 with tags, fused parts or gaps): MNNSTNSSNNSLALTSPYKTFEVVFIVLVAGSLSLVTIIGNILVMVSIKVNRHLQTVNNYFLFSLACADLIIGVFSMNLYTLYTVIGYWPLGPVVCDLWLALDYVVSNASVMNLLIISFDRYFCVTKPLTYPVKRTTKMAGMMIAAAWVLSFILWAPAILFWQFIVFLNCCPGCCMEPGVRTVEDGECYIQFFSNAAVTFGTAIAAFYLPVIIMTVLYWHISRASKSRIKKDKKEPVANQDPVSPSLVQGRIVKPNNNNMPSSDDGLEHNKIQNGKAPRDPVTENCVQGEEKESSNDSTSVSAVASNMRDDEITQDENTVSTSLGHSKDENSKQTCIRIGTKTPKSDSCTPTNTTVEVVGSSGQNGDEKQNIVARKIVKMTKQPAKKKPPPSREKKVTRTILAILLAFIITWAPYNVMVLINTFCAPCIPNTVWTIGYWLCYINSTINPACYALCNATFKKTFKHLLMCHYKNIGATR

[3] = target: T2, eGFP-M2 solubilized in digitonin–cholate (Homo sapiens, UniProt P08172); assay: Time-resolved fluorescence and fluorescence anisotropy of eGFP-tagged M2 receptor; conditions: eGFP-M2 + carbachol 1 mM
T2 sequence (P08172 1-466): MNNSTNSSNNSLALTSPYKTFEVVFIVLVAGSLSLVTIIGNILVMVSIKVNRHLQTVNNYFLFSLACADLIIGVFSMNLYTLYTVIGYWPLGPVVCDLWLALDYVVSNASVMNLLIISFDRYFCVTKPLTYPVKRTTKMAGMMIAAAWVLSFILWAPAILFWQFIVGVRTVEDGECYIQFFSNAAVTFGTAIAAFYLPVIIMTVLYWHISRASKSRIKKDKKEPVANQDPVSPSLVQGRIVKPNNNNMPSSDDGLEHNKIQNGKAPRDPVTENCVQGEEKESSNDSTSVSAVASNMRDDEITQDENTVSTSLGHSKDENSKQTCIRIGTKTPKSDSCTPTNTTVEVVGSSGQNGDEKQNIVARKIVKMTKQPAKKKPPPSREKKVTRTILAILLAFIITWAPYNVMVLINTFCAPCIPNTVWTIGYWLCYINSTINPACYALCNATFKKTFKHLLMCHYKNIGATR

[4] = tested on: M2 receptors (alanine for aspartic acid at position 103) in HEK293 membranes; conditions: cited from earlier work
[5] = target: T3, copurified heteromer of M2-ECL2+ve and M2-D103A (Homo sapiens, UniProt P08172, D103A/D173R/E172K/E175K); assay: Effect of gallamine on the binding of [3H]NMS to purified hetero-oligomers; conditions: [3H]NMS 10 nM; 21 hr at 30°C
T3 construct: hexahistidine (His6) (N); made in house; host or cells: co-transfected CHO cells; purified on Ni2+-NTA and anti-FLAG resins
T3 sequence (P08172 1-466 E172K/D173R/E175K): T2 sequence (P08172 1-466) with E172K, D173R, E175K
T3 sequence (P08172 1-466 D103A): T2 sequence (P08172 1-466) with D103A

[6] = tested on: M2 receptor in Sf9 membranes; conditions: cited from earlier work
[7] = target: T4, M2 receptor monomers purified from Sf9 cells (Homo sapiens, UniProt P08172); assay: Effect of allosteric modulators on the binding of [3H]NMS to purified monomers
T4 sequence (P08172 1-466): T2 sequence (P08172 1-466)

[8] = target: T4, M2 receptor monomers purified from Sf9 cells; type: binding
[9] = target: M2 receptor in membranes from CHO cells (Homo sapiens, UniProt P08172)
[10] = target: M2 receptors extracted from porcine sarcolemmal membranes (Sus scrofa, UniProt P06199)
[11] = gallamine, [3H]NMS 10 nM, 21 h at 30 °C, n = 1

Sequence of M2 receptors extracted from porcine sarcolemmal membranes (P06199 whole entry): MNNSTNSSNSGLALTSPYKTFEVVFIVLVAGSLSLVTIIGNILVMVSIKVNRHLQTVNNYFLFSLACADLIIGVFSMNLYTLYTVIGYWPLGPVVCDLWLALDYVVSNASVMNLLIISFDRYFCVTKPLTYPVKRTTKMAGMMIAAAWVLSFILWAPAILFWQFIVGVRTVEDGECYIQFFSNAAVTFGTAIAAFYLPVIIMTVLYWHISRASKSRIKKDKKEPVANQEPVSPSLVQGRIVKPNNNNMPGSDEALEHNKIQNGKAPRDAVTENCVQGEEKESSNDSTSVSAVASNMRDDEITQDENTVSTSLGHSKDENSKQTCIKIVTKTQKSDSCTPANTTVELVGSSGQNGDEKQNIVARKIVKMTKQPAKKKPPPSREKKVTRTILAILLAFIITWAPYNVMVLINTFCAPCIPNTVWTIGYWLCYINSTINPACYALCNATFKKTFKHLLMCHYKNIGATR

## eGFP-M2 (from UniProt P08172 1-466) (receptor)
[1]
  NMS (1 μM)-dependent increase in the FRET efficiency between FlAsH and mCherry of the binding-deficient sensor in CHO cells that display eGFP, FlAsH and mCherry (percentage points): 5.3

## C[N+](C)(C)CCOC(N)=O [carbachol]
[2]
  ∆Eapp, mean change in FRET efficiency ± S.D.: −21.6 ± 11.2%
[3]
  Fluorescence lifetime (τ): 2.5 ± 0.1 ns
  Rotational correlation time (φ): 43 ± 5 ns

## N-[^3H]methylscopolamine [[^3H]NMS]
[4]
  specific binding of radioligand: prevent the specific binding

## CC[N+](CC)(CC)CCOc1cccc(OCC[N+](CC)(CC)CC)c1OCC[N+](CC)(CC)CC [gallamine]
[5]
  log K2 (Equation 2, n = 3): 4.29 ± 0.37
[6]
  log K1 (Equation 2), dose-dependence of kobsd/k0: −5.99 ± 0.31
  log K2 (Equation 2), dose-dependence of kobsd/k0: −4.35 ± 0.03
[7]; [11]
  F1: 1.00
  nH(1): 1.00 ± 0.06
[8]
  F1: 1.00

## O=C1C[C@@H]2OCC=C3CN4CC[C@]56c7ccccc7N1[C@H]5[C@H]2[C@H]3C[C@H]46 [strychnine]
[9]
  F2: 2.21 ± 0.16
  nH(1): 0.72 ± 0.06 and 0.98 ± 0.14 and 1.20 ± 0.07
  nH(2): 1.44 ± 0.09 and 1.07 ± 0.08
[7]
  F1: 1.00
  nH(1): 0.62 ± 0.07 and 1.23 ± 0.07
[10]
  F2: 1.57 and 2
